Laboratory results published in patent publication US5942534A, “Photodynamic therapy for the treatment of osteoarthritis” (The General Hospital Corporation, priority 1997, dated 1999).

System: MMP9
Experiment: Gelatin zymography, MMP9 after PDT
Assay type: cell-based, calf
Conditions: at PDT parameter levels non-toxic to chondrocytes
Procedure: Chondrocytes were harvested by established collagenase digestion techniques. Articular cartilage was aseptically dissected from the femoral condyles and patellas of calf knee joints. Condyle surface shavings were finely minced and digested overnight at 37° C. with collagenase 1 mg/ml (Type II; 355 U/mg dry weight (dw)) and hyaluronidase 0.1 mg/ml (1060 USP/NF units/mg dw) (Worthington Biochemicals, Inc., Freehold, N.J.) in Dulbecco's Modified Eagle's Medium (DMEM; Mediatech, Herndon, Va.) supplemented with 20 mM HEPES, 100 U/ml penicillin G, 100 μg/ml ascorbic acid (serum free TCM). The resulting cell suspensions were filtered through a cell sieve and washed twice with serum free TCM. The cells were resuspended in the same medium containing 5% heat inactivated fetal calf serum (BioWhittaker, Walkerville, Md.) (FCS-TCM) for seeding. Cell number was determined using a hemocytometer. Cell viability, which was determined by trypan blue exclusion, was greater than 99% for all preparations. Cells were plated at a density of 1.5×10^6 cells/ml into Falcon 96 well cell culture plates (Becton Dickinson Labware, Franklin Lakes, N.J.) for the cytotoxicity and cell proliferation experiments and into Falcon 6 well cell culture plates for the Photosensitizer uptake studies. […]

C=Cc1c(C)c2cc3nc(c(CC(=O)O)c4[nH]c(cc5nc(cc1[nH]2)C(C)=C5CC)c(C)c4C(=O)O)[C@@H](CCC(=O)O)[C@@H]3C [Ce6, Chlorin e6]
MMP9 production (in words): reduced at PDT parameter levels non-toxic to chondrocytes
